Measurements published in patent publication US20100298141A1, “SUBSTITUTED PYRIDINE N-OXIDE HERBICIDES” (E. I. DU PONT DE NEMOURS AND COMPANY, priority 2007, published 2010).

Tests used:
Test in all cases: Test F preemergence test
green foxtail = type: in vivo, Setaria viridis; settings: scale 0 to 100
In short: (§1)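 Compounds in a non-phytotoxic solvent formulation with surfactant were applied before emergence after sowing, or, for sugarcane, also postemergence. Evaluation was visual, against controls, after 14 to 21 greenhouse days.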

common ragweed = type: in vivo, Ambrosia elation; settings: scale 0 to 100
In short: as §1

Italian ryegrass = type: in vivo, Lolium multiflorum; settings: scale 0 to 100
In short: as §1

field bindweed = type: in vivo, Convolvulus arvensis; settings: scale 0 to 100
In short: as §1

pitted morningglory = type: in vivo, Ipomoea lacunosa; settings: scale 0 to 100
In short: as §1

Surinam grass = type: in vivo, Brachiaria decumbens; settings: scale 0 to 100
In short: as §1

naked crabgrass = type: in vivo, Digitaria nuda; settings: scale 0 to 100
In short: as §1

common mallow = type: in vivo, Malva sylvestris; settings: Preemergence, scale 0 to 100
In short: as §1

barnyardgrass = type: in vivo, Echinochloa crus-galli; settings: scale 0 to 100
In short: as §1

bermudagrass = type: in vivo, Cynodon dactylon; settings: scale 0 to 100
In short: as §1

quackgrass = type: in vivo, Elytrigia repens; settings: scale 0 to 100
In short: as §1

common purslane = type: in vivo, Portulaca oleracea; settings: scale 0 to 100
In short: as §1

prickly sida = type: in vivo, Sida spinosa; settings: scale 0 to 100
In short: as §1

southern sandbur = type: in vivo, Cenchrus echinatus; settings: scale 0 to 100
In short: as §1

annual bluegrass = type: in vivo, Poa annua; settings: scale 0 to 100
In short: as §1

guineagrass = type: in vivo, Panicum maximum; settings: scale 0 to 100
In short: as §1

large crabgrass = type: in vivo, Digitaria sanguinalis; settings: scale 0 to 100
In short: as §1

mustard = type: in vivo, Brassica nigra; settings: scale 0 to 100
In short: as §1

common chickweed = type: in vivo, Stellaria media; settings: scale 0 to 100
Excerpt: Seeds of plant species selected from bermudagrass (Cynodon dactylon), Surinam grass (Brachiaria decumbens), large crabgrass (Digitaria sanguinalis), green foxtail (Setaria viridis), goosegrass (Eleusine indica), johnsongrass (Sorghum halepense), kochia (Kochia scoparia), pitted morningglory (Ipomoea lacunosa), purple nutsedge (Cyperus rotundus), common ragweed (Ambrosia elation), mustard (Brassica nigra), guineagrass (Panicum maximum), […] (Paspalum dilatatum), barnyardgrass (Echinochloa crus-galli), southern sandbur (Cenchrus echinatus), common sowthistle (Sonchus oleraceous), prickly […] spinosa), Italian ryegrass (Lolium multiflorum), common purslane (Portulaca oleracea), broadleaf signalgrass (Brachiaria platyphylla), common groundsel (Senecio vulgaris), common chickweed (Stellaria media), Virginia dayflower (Commelina virginica), annual bluegrass (Poa annua), naked crabgrass (Digitaria nuda), […] cochinchinensis), quackgrass (Elytrigia repens), Canada horseweed (Conyza canadensis), field bindweed (Convolvulus arvensis), […] (Bidens bipinnata), common mallow (Malva sylvestris), Russian thistle (Salsola kali), and sugarcane (Saccharum officinarum) were planted and treated preemergence with test chemicals formulated in a non-phytotoxic solvent mixture which included a surfactant. At a different time, sugarcane was treated with postemergence applications of some of the test chemicals formulated in the same manner. Plants were approximately 3- to 4-leaf stage for the postemergence treatments. Treated plants and controls were maintained in a greenhouse for 14 to 21 days, after which time all species were compared to controls and visually evaluated. […] A dash (-) response means no test result.

Compound: CC(c1c(C(F)(F)F)nn(C)c1OC(F)F)S(=O)(=O)c1cccc[n+]1[O-] (centres unmarked) [Compound 5]
- Plant response rating, Foxtail, Green (green foxtail; 8 g ai/ha, preemergence): 0
- Foxtail, Green plant response rating (green foxtail; 62 g ai/ha, Preemergence): 90
- Plant response rating, Foxtail, Green (green foxtail; Preemergence, 16 g ai/ha): 30
- Plant response rating, Foxtail, Green (green foxtail; Preemergence, 31 g ai/ha): 70
- Plant response rating, Ragweed (common ragweed; 8 g ai/ha, preemergence): 50
- Ragweed plant response rating (common ragweed; 62 g ai/ha, Preemergence): 100
- Plant response rating, Ragweed (common ragweed; Preemergence, 16 g ai/ha): 65
- Plant response rating, Ragweed (common ragweed; Preemergence, 31 g ai/ha): 75
- Plant response rating, Ryegrass, Italian (Italian ryegrass; 8 g ai/ha, preemergence): 10
- Ryegrass, Italian plant response rating (Italian ryegrass; 62 g ai/ha, Preemergence): 75
- Plant response rating, Ryegrass, Italian (Italian ryegrass; Preemergence, 16 g ai/ha): 40
- Plant response rating, Ryegrass, Italian (Italian ryegrass; Preemergence, 31 g ai/ha): 60
- Plant response rating, Field Bindweed (field bindweed; 8 g ai/ha, preemergence): 0
- Field Bindweed plant response rating (field bindweed; 62 g ai/ha, Preemergence): 0
- Plant response rating, Field Bindweed (field bindweed; Preemergence, 16 g ai/ha): 0
- Plant response rating, Field Bindweed (field bindweed; Preemergence, 31 g ai/ha): 0
- Plant response rating, Morningglory (pitted morningglory; 8 g ai/ha, preemergence): 0
- Morningglory plant response rating (pitted morningglory; 62 g ai/ha, Preemergence): 80
- Plant response rating, Morningglory (pitted morningglory; Preemergence, 16 g ai/ha): 50
- Plant response rating, Morningglory (pitted morningglory; Preemergence, 31 g ai/ha): 50
- Plant response rating, Surinam Grass (Surinam grass; 8 g ai/ha, preemergence): 0
- Plant response rating, Surinam Grass (Surinam grass; 16 g ai/ha, preemergence): 80
- Surinam Grass plant response rating (Surinam grass; 62 g ai/ha, Preemergence): 100
- Plant response rating, Surinam Grass (Surinam grass; Preemergence, 31 g ai/ha): 90
- Plant response rating, Crabgrass, Naked (naked crabgrass; 8 g ai/ha, preemergence): 60
- Crabgrass, Naked plant response rating (naked crabgrass; 62 g ai/ha, Preemergence): 100
- Plant response rating, Crabgrass, Naked (naked crabgrass; Preemergence, 16 g ai/ha): 95
- Plant response rating, Crabgrass, Naked (naked crabgrass; Preemergence, 31 g ai/ha): 100
- Mallow plant response rating (common mallow; 62 g ai/ha): 90
- Plant response rating, Mallow (common mallow; 16 g ai/ha): 25
- Plant response rating, Barnyardgrass (barnyardgrass; 8 g ai/ha, preemergence): 70
- Barnyardgrass plant response rating (barnyardgrass; 62 g ai/ha, Preemergence): 100
- Plant response rating, Barnyardgrass (barnyardgrass; Preemergence, 16 g ai/ha): 75
- Plant response rating, Barnyardgrass (barnyardgrass; Preemergence, 31 g ai/ha): 98
- Plant response rating, Bermudagrass (bermudagrass; 8 g ai/ha, preemergence): 25
- Bermudagrass plant response rating (bermudagrass; 62 g ai/ha, Preemergence): 100
- Plant response rating, Bermudagrass (bermudagrass; Preemergence, 16 g ai/ha): 50
- Plant response rating, Bermudagrass (bermudagrass; Preemergence, 31 g ai/ha): 100
- Plant response rating, Quackgrass (quackgrass; 8 g ai/ha, preemergence): 10
- Quackgrass plant response rating (quackgrass; 62 g ai/ha, Preemergence): 85
- Plant response rating, Quackgrass (quackgrass; Preemergence, 16 g ai/ha): 50
- Plant response rating, Quackgrass (quackgrass; Preemergence, 31 g ai/ha): 70
- Plant response rating, Purslane (common purslane; 8 g ai/ha, preemergence): 0
- Purslane plant response rating (common purslane; 62 g ai/ha, Preemergence): 65
- Plant response rating, Purslane (common purslane; Preemergence, 16 g ai/ha): 35
- Plant response rating, Purslane (common purslane; Preemergence, 31 g ai/ha): 50
- Plant response rating, Prickly Sida (prickly sida; 8 g ai/ha, preemergence): 0
- Prickly Sida plant response rating (prickly sida; 62 g ai/ha, Preemergence): 100
- Plant response rating, Prickly Sida (prickly sida; Preemergence, 16 g ai/ha): 50
- Plant response rating, Prickly Sida (prickly sida; Preemergence, 31 g ai/ha): 100
- Plant response rating, Sandbur (southern sandbur; 8 g ai/ha, preemergence): 15
- Plant response rating, Sandbur (southern sandbur; 16 g ai/ha, preemergence): 75
- Sandbur plant response rating (southern sandbur; 62 g ai/ha, Preemergence): 100
- Plant response rating, Sandbur (southern sandbur; Preemergence, 31 g ai/ha): 100
- Plant response rating, Bluegrass (annual bluegrass; 8 g ai/ha, preemergence): 0
- Bluegrass plant response rating (annual bluegrass; 62 g ai/ha, Preemergence): 75
- Plant response rating, Bluegrass (annual bluegrass; Preemergence, 16 g ai/ha): 20
- Plant response rating, Bluegrass (annual bluegrass; Preemergence, 31 g ai/ha): 75
- Plant response rating, Guineagrass (guineagrass; 8 g ai/ha, preemergence): 20
- Guineagrass plant response rating (guineagrass; 62 g ai/ha, Preemergence): 100
- Plant response rating, Guineagrass (guineagrass; Preemergence, 16 g ai/ha): 100
- Plant response rating, Guineagrass (guineagrass; Preemergence, 31 g ai/ha): 100
- Plant response rating, Crabgrass, Large (large crabgrass; 8 g ai/ha, preemergence): 10
- Crabgrass, Large plant response rating (large crabgrass; 62 g ai/ha, Preemergence): 95
- Plant response rating, Crabgrass, Large (large crabgrass; Preemergence, 16 g ai/ha): 80
- Plant response rating, Crabgrass, Large (large crabgrass; Preemergence, 31 g ai/ha): 85
- Plant response rating, Black Mustard (mustard; 8 g ai/ha, preemergence): 0
- Black Mustard plant response rating (mustard; 62 g ai/ha, Preemergence): 85
- Plant response rating, Black Mustard (mustard; Preemergence, 16 g ai/ha): 35
- Plant response rating, Black Mustard (mustard; Preemergence, 31 g ai/ha): 75
- Plant response rating, Chickweed (common chickweed; 8 g ai/ha, preemergence): 100
- Chickweed plant response rating (common chickweed; 62 g ai/ha, Preemergence): 100
- Plant response rating, Chickweed (common chickweed; Preemergence, 16 g ai/ha): 100
- Plant response rating, Chickweed (common chickweed; Preemergence, 31 g ai/ha): 100
